From the NIST ThermoML archive (doi:10.1016/j.fluid.2011.11.022)
± gives the expanded uncertainty stated by the source.

Conditions: Liquid; for mass density: Buoyancy - hydrostatic balance; for viscosity: Falling or rolling sphere viscometry

OCCO [1,2-ethanediol]
Conditions	mass density [kg/m3]	viscosity [mPa·s]
293.15 K, 98 kPa	1113.58 ± 6.7	21.1 ± 0.86
293.15 K, 49030 kPa	1134.56 ± 6.8	26.75 ± 1.1
293.15 K, 98060 kPa	1147.72 ± 6.9	33.42 ± 1.4
293.15 K, 147100 kPa	1159.85 ± 7	41.19 ± 1.7
293.15 K, 196130 kPa	1173.34 ± 7	50.33 ± 2
293.15 K, 245160 kPa	1185.44 ± 7.1	60.43 ± 2.4
312.46 K, 98 kPa	1100.88 ± 6.6	9.925 ± 0.4
312.46 K, 98060 kPa	1139.02 ± 6.8	14.82 ± 0.61
312.49 K, 49030 kPa	1123.04 ± 6.7	12.24 ± 0.5
312.49 K, 147100 kPa	1153.18 ± 6.9	17.64 ± 0.72
312.65 K, 245160 kPa	1179.39 ± 7.1	24.69 ± 1
334.87 K, 98 kPa	1085.13 ± 6.5	4.949 ± 0.2
335 K, 49030 kPa	1108.43 ± 6.7	5.952 ± 0.24
335.3 K, 98060 kPa	1127.05 ± 6.8	7.031 ± 0.29
335.35 K, 245160 kPa	1169.07 ± 7	11.15 ± 0.46
335.43 K, 147100 kPa	1143.57 ± 6.9	8.234 ± 0.34
335.45 K, 196130 kPa	1156.71 ± 6.9	9.608 ± 0.4
349.24 K, 98 kPa	1074.46 ± 6.5	3.517 ± 0.14
349.5 K, 49030 kPa	1098.33 ± 6.6	4.157 ± 0.17
349.65 K, 98060 kPa	1118.59 ± 6.7	4.89 ± 0.2
349.67 K, 147100 kPa	1136.69 ± 6.8	5.688 ± 0.23
349.8 K, 196130 kPa	1149.28 ± 6.9	6.541 ± 0.27
349.91 K, 245160 kPa	1161.91 ± 7	7.454 ± 0.3
365.7 K, 98 kPa	1061.7 ± 6.4	2.39 ± 0.097
366.1 K, 49030 kPa	1086.11 ± 6.5	2.816 ± 0.12
366.15 K, 98060 kPa	1107.99 ± 6.7	3.302 ± 0.13
366.37 K, 147100 kPa	1127.71 ± 6.8	3.812 ± 0.15
366.48 K, 196130 kPa	1139.94 ± 6.8	4.344 ± 0.18
366.8 K, 245160 kPa	1153.08 ± 6.9	4.889 ± 0.2
380.15 K, 98060 kPa	1098.24 ± 6.6	2.558 ± 0.1
380.82 K, 98 kPa	1049.47 ± 6.3	1.872 ± 0.076
381 K, 49030 kPa	1074.54 ± 6.5	2.207 ± 0.09
381.2 K, 196130 kPa	1131.06 ± 6.8	3.345 ± 0.14
381.27 K, 147100 kPa	1118.88 ± 6.7	2.932 ± 0.12
381.3 K, 245160 kPa	1145.04 ± 6.9	3.784 ± 0.15
395.55 K, 98 kPa	1037.07 ± 6.2	1.419 ± 0.058
395.6 K, 49030 kPa	1062.66 ± 6.4	1.673 ± 0.068
395.61 K, 98060 kPa	1086.68 ± 6.5	1.936 ± 0.079
395.65 K, 147100 kPa	–	2.214 ± 0.09
395.73 K, 196130 kPa	1121.71 ± 6.7	2.501 ± 0.1
395.8 K, 245160 kPa	1136.57 ± 6.8	2.811 ± 0.11
421.7 K, 98 kPa	1013.93 ± 6.1	0.96 ± 0.039
421.71 K, 49030 kPa	1040.05 ± 6.2	1.174 ± 0.048
421.8 K, 98060 kPa	1065.2 ± 6.4	1.345 ± 0.055
421.9 K, 147100 kPa	1090.87 ± 6.5	1.521 ± 0.062
422 K, 196130 kPa	–	1.716 ± 0.07
422 K, 245160 kPa	1120.22 ± 6.7	1.898 ± 0.077
464.4 K, 98 kPa	972.98 ± 5.8	0.652 ± 0.027
464.47 K, 98060 kPa	1025.08 ± 6.2	0.97 ± 0.039
464.53 K, 196130 kPa	1069.52 ± 6.4	1.203 ± 0.049
464.53 K, 245160 kPa	1090.75 ± 6.5	1.356 ± 0.055
464.54 K, 147100 kPa	1055.29 ± 6.3	1.11 ± 0.045
464.6 K, 49030 kPa	999.13 ± 6	0.877 ± 0.036

OCCOCCO [diethylene glycol]
Conditions	mass density [kg/m3]	viscosity [mPa·s]
293.15 K, 98 kPa	1117.04 ± 6.7	36.52 ± 1.5
293.15 K, 49030 kPa	1137.67 ± 6.8	52.72 ± 2.1
293.15 K, 98060 kPa	1158.16 ± 7	74.16 ± 3.1
293.15 K, 147100 kPa	1171 ± 7	102.6 ± 4.7
293.15 K, 196130 kPa	1184.89 ± 7.1	139.9 ± 7.2
293.15 K, 245160 kPa	1196.63 ± 7.2	187.3 ± 11
298.15 K, 98 kPa	1114.02 ± 6.7	28.36 ± 1.2
298.15 K, 49030 kPa	1135.41 ± 6.8	40.36 ± 1.6
298.15 K, 98060 kPa	1155.68 ± 6.9	56.52 ± 2.3
298.15 K, 147100 kPa	1168.88 ± 7	77.16 ± 3.3
298.15 K, 196130 kPa	1182.6 ± 7.1	103.8 ± 4.8
298.15 K, 245160 kPa	1194.5 ± 7.2	138.3 ± 7.1
312.6 K, 98 kPa	1104.9 ± 6.6	15.25 ± 0.62
312.62 K, 49030 kPa	1128.43 ± 6.8	21.04 ± 0.86
312.63 K, 98060 kPa	1148.18 ± 6.9	28.2 ± 1.2
312.67 K, 147100 kPa	1162.46 ± 7	37.14 ± 1.5
312.71 K, 196130 kPa	1175.84 ± 7.1	48.29 ± 2
312.75 K, 245160 kPa	1188.18 ± 7.1	62.07 ± 2.6
329.28 K, 98 kPa	1093.62 ± 6.6	8.458 ± 0.35
329.33 K, 98060 kPa	1138.99 ± 6.8	14.73 ± 0.6
329.33 K, 196130 kPa	1167.96 ± 7	23.82 ± 0.98
329.33 K, 245160 kPa	1180.84 ± 7.1	29.61 ± 1.2
329.38 K, 49030 kPa	1119.54 ± 6.7	11.29 ± 0.46
329.38 K, 147100 kPa	1154.56 ± 6.9	18.83 ± 0.77
344.99 K, 98 kPa	1082.27 ± 6.5	5.34 ± 0.22
345.2 K, 49030 kPa	1110.34 ± 6.7	7.062 ± 0.29
345.38 K, 98060 kPa	1129.61 ± 6.8	8.969 ± 0.37
345.47 K, 147100 kPa	1146.46 ± 6.9	11.23 ± 0.46
345.61 K, 196130 kPa	1160.06 ± 7	13.81 ± 0.57
345.78 K, 245160 kPa	1173.38 ± 7	16.75 ± 0.68
349.77 K, 98 kPa	1078.67 ± 6.5	4.809 ± 0.2
350.06 K, 49030 kPa	1107.36 ± 6.6	6.25 ± 0.26
350.13 K, 147100 kPa	1144.02 ± 6.9	9.866 ± 0.4
350.16 K, 98060 kPa	1126.71 ± 6.8	7.904 ± 0.32
350.4 K, 196130 kPa	1157.71 ± 7	12.04 ± 0.49
366.77 K, 98 kPa	1065.35 ± 6.4	3.231 ± 0.13
367.13 K, 49030 kPa	1096.31 ± 6.6	4.124 ± 0.17
367.26 K, 147100 kPa	1134.7 ± 6.8	6.331 ± 0.26
367.3 K, 98060 kPa	1115.94 ± 6.7	5.145 ± 0.21
367.37 K, 196130 kPa	1149.25 ± 6.9	7.607 ± 0.31
367.61 K, 245160 kPa	1163.2 ± 7	9.086 ± 0.37
413.65 K, 98 kPa	1024.3 ± 6.2	1.409 ± 0.057
413.8 K, 49030 kPa	1061.47 ± 6.4	1.78 ± 0.073
413.93 K, 98060 kPa	1083.55 ± 6.5	2.153 ± 0.088
414.01 K, 147100 kPa	1106.4 ± 6.6	2.554 ± 0.1
414.09 K, 196130 kPa	1124.99 ± 6.8	2.987 ± 0.12
414.29 K, 245160 kPa	1140.38 ± 6.8	3.474 ± 0.14
463.94 K, 98060 kPa	1043.8 ± 6.3	1.218 ± 0.05
463.99 K, 49030 kPa	1016.46 ± 6.1	1.002 ± 0.041
464.05 K, 98 kPa	973.11 ± 5.8	0.789 ± 0.032
464.09 K, 147100 kPa	1071.5 ± 6.4	1.432 ± 0.058
464.2 K, 196130 kPa	1097.41 ± 6.6	1.655 ± 0.067
464.37 K, 245160 kPa	1114.3 ± 6.7	1.879 ± 0.077

OCCOCCOCCO [triethylene glycol]
Conditions	mass density [kg/m3]	viscosity [mPa·s]
298.15 K, 98 kPa	1119.75 ± 6.7	36.82 ± 1.5
298.15 K, 49030 kPa	1143.46 ± 6.9	55.23 ± 2.3
298.15 K, 98060 kPa	1161.38 ± 7	80.29 ± 3.5
298.15 K, 147100 kPa	1175.25 ± 7.1	114.4 ± 5.5
298.15 K, 196130 kPa	1189.31 ± 7.2	160.6 ± 8.7
298.15 K, 245160 kPa	1200.31 ± 7.2	221.8 ± 14
312.96 K, 98 kPa	1109.61 ± 6.7	19.03 ± 0.79
313.05 K, 49030 kPa	1134.18 ± 6.8	27.42 ± 1.1
313.1 K, 98060 kPa	1152.38 ± 6.9	38.28 ± 1.6
313.18 K, 147100 kPa	1166.44 ± 7	52.5 ± 2.1
313.25 K, 196130 kPa	1180.35 ± 7.1	70.68 ± 3
313.26 K, 245160 kPa	1191.47 ± 7.2	93.99 ± 4.3
334.96 K, 98 kPa	1093.69 ± 6.6	9.002 ± 0.37
335.11 K, 49030 kPa	1119.52 ± 6.7	12.45 ± 0.52
335.14 K, 98060 kPa	1138.49 ± 6.8	16.7 ± 0.69
335.2 K, 147100 kPa	1153.34 ± 6.9	22.03 ± 0.92
335.25 K, 196130 kPa	1167.46 ± 7	28.48 ± 1.2
335.26 K, 245160 kPa	1178.87 ± 7.1	36.37 ± 1.5
349.25 K, 98 kPa	1082.8 ± 6.5	5.945 ± 0.25
349.94 K, 196130 kPa	1158.94 ± 7	17.53 ± 0.73
349.98 K, 49030 kPa	1109.01 ± 6.7	8.061 ± 0.33
349.98 K, 98060 kPa	1128.74 ± 6.8	10.66 ± 0.44
349.99 K, 245160 kPa	1170.6 ± 7	21.84 ± 0.91
350.03 K, 147100 kPa	1144.4 ± 6.9	13.75 ± 0.57
364.44 K, 98 kPa	1070.74 ± 6.4	4.131 ± 0.17
364.44 K, 49030 kPa	1098.31 ± 6.6	5.537 ± 0.23
364.72 K, 98060 kPa	1118.72 ± 6.7	7.149 ± 0.3
365.03 K, 147100 kPa	1135.26 ± 6.8	9.021 ± 0.37
365.07 K, 196130 kPa	1150.26 ± 6.9	11.24 ± 0.46
365.2 K, 245160 kPa	1162.2 ± 7	13.8 ± 0.57
413.73 K, 98 kPa	1028.27 ± 6.2	1.679 ± 0.069
414 K, 49030 kPa	1058.03 ± 6.4	2.179 ± 0.09
414.15 K, 98060 kPa	1082.77 ± 6.5	2.836 ± 0.12
414.27 K, 147100 kPa	1104.57 ± 6.7	3.32 ± 0.14
414.3 K, 196130 kPa	1122.57 ± 6.8	3.995 ± 0.17
414.43 K, 245160 kPa	1136 ± 6.8	4.485 ± 0.19
462.25 K, 98 kPa	981.42 ± 5.9	0.997 ± 0.041
462.26 K, 49030 kPa	1013.43 ± 6.1	1.303 ± 0.054
462.32 K, 98060 kPa	1044.24 ± 6.3	1.614 ± 0.067
462.41 K, 147100 kPa	1073.54 ± 6.5	1.941 ± 0.08
462.45 K, 196130 kPa	1096.35 ± 6.6	2.3 ± 0.095
462.58 K, 245160 kPa	1111.83 ± 6.7	2.678 ± 0.11
